In publication PMC7821884, “BRAF inhibition protects against hearing loss in mice” (Science Advances, 2020):

Assays:
[1] = test system: P3-P4 FVB mouse cochlear explants; parameters: method as in PMID 29514916, PMID 9303151; details: identical P3 FVB explant model; read-out: IC50, protection from cisplatin in explants; cited from earlier work
[2] = test system: P3-P4 FVB mouse cochlear explants; details: 150 μM, 24 hours
Method: Mouse cochlear explants are widely recognized as an alternative to in vivo cochlear models and pragmatic for focused drug screening ([37]). […] Medium-alone, drug-alone, and cisplatin-alone treatments were used as controls.
P3-P4 FVB mouse cochleae were dissected and maintained in culture on filter inserts in six-well plates with 1 ml of growth medium DMEM (12430-054,Gibco Life Technologies), with 1% FBS (16000-044, Gibco Life Technologies), B-27 supplement (200 μl/500 ml; 17504-44, Gibco Life Technologies), N-2 supplement (100 μl/500 ml; 17502-048, Gibco Life Technologies), and ampicillin (50 μg/ml; A5354-10ML, Sigma-Aldrich) both inside and outside the filter (Millicell, PICM03050, Millipore). […] Cochleae were imaged by confocal microscopy, two 160-μm regions from middle turns were photographed, and the number of intact HCs was counted. Two to five independent cochleae were tested for each experimental condition.

[3] = parameters: method as in PMID 25665007, PMID 25058905, PMID 23044998; details: cisplatin chemotherapy; cited from earlier work
P42 FVB mice = experiment: Cisplatin-induced hearing loss in adult mice (ABR, OHC counts, pERK); details: cisplatin 30 mg/kg i.p., alone or combined with dabrafenib
Method: As described in Fig. 4A, baseline auditory brainstem response (ABR) thresholds for P42 FVB mice were established 1 week before experimental procedures. […] Animals were allowed 21 days after cisplatin injection to recover, and final ABR thresholds were recorded.
Ten milligrams of cisplatin (479306, Sigma-Aldrich) powder was dissolved in 10 ml of sterile saline (0.9% NaCl) at 37°C for 40 to 60 min. Cisplatin was administered to FVB mice at 30 mg/kg via intraperitoneal injection. One day before cisplatin injection, mice received 1 ml of saline by subcutaneous injection. To ameliorate dehydration after cisplatin injection, 1 ml of warm saline was injected twice per day for at least 7 days or until body weight started to recover. The cages of cisplatin-treated mice were placed on the heating pad for at least 7 days or until body weight began to recover. Fresh mush food was daily given for at least 7 days.
Compounds were dissolved in a mixture of 10% DMSO, 5% Tween 80 (P1754, Sigma-Aldrich), 40% PEG-E-300 (91462-1KG, Sigma-Aldrich), and 45% 0.9% saline.
ABR in mice was measured for left ears as described previously with minor modifications ([13], [34]). In brief, ABR waveforms were recorded in a sound booth (Industrial Acoustic Company) by using subdermal needles positioned in the skull, below the pinna, and at the base of the tail, and the responses were fed into a low-impedance Medusa digital biological amplifier system (RA4L; TDT; 20-dB gain). At each frequency, the stimulus intensity was reduced from 90 to 0 dB in 10-dB steps to determine the threshold decibel SPL when the electrical response was just above the noise floor. ABR waveforms were averaged in response to 500 tone bursts. The recorded signals were filtered by a band-pass filter from 300 Hz to 3 kHz. Pretreatment ABR recordings of adult FVB mice (aged 6 weeks) were acquired 1 week before all treatments, and posttreatment ABR measurements were recorded 21 days after cisplatin treatment or 14 days after noise exposure. ABR threshold was determined by the presence of any of three or more of the five waveform peaks. […] All thresholds and shifts were determined independently by two experimenters for each mouse. Individual ABR wave 1 amplitudes were measured as the difference between the positive peak and the following negative trough.
Cochleae from adult mice were prepared and examined as described previously ([85], [86]). All images were acquired with a confocal microscope (LSM 700 or 710, Zeiss). Samples were stained with phalloidin (A12379 or A12380, Invitrogen) or with antibodies for other markers. The following primary antibodies were used: anti–myosin VI (1:400; 25-6791; Proteus Bioscience), anti–myosin VIIa ([…];138-1-s, Developmental Studies Hybridoma Bank), anti-Tuj1 (1:250; 801201, BioLegend), anti-pERK (1:400; 9101S, Cell Signaling Technology), or anti-Ctbp2 (1:500; 612044, BD Transduction). Anti-rabbit Alexa Fluor 488 (1:400; A11034) and anti-mouse Alexa Fluor 647 (1:400; A31571) secondary antibodies were purchased from Invitrogen. ProLong gold antifade reagent with 4′,6-diamidino-2-phenylindole (P36941, Invitrogen) was used to counterstain nuclei.

HEI-OC1 cell line = experiment: Caspase-Glo 3/7 activity screen for protection from cisplatin-induced cell death; assay type: cell-based, mouse; details: HEI-OC1, 50 μM cisplatin, 22 hours
Method: An unbiased screen for compounds protective against cisplatin ototoxicity ([12], [13]) was conducted using the immortalized inner ear cell line HEI-OC1 derived from mouse cochlea ([14]). One hundred sixty-two unique small-molecule kinase-specific inhibitors were screened in dose-response mode for protection from 50 μM cisplatin. A caspase-3/7 activity assay was selected to measure apoptosis using a protocol that quantifies a luminescent product derived from the cleavage of caspase-3/7 substrate (Caspase-Glo 3/7 reagent). One hundred percent luminescence was defined by cells treated with cisplatin alone, and 0% was defined by untreated cells (Fig. 1A, fig. S1, table S1, and dataset in the Supplementary Materials).
In these screens, caspase-3 cleavage was chosen as the end point indicating cisplatin-induced apoptosis, because it allowed the inhibition of cell death to be monitored at the level of any molecular target upstream of caspase-3 cleavage in the HEI-OC1 cell line. Cells were plated at a previously optimized concentration of 1600 cells per well in medium without γ-interferon to limit proliferation and tested against 50 μM cisplatin based on a previous dose–response curve. Tested compounds were dissolved in DMSO before addition to medium with a final DMSO concentration of <0.5%. The screens are described in detail in our previous publications ([12], [13]). […]

[4] = parameters: method as in PMID 25894725, PMID 26655654; details: cited from earlier work
[5] = cited from earlier work

CSCC[C@@H](N)C(=O)O [D-methionine]
IC50 [1]: 98.4 µM

N.N.[Cl][Pt][Cl] [cisplatin]
OHCs that died with cisplatin [2]: ~40%
patients with cancer with hearing loss [3]: 40 to 60%
survival rate of mice (P42 FVB mice): 50%

Cc1ccc(C(=O)Cn2c3c(sc2=N)CCCC3)cc1 [Pifithrin-α]
IC50 (HEI-OC1 cell line): 7.7 µM

C[C@@H]1C[C@H]2[C@@H]3CCC4=CC(=O)C=C[C@]4(C)[C@@]3(F)[C@@H](O)C[C@]2(C)[C@@]1(O)C(=O)CO [dexamethasone]
IC50 [1]: > 0.25 µM
effectiveness in treating noise ototoxicity [4]: only partially effective

O=S([O-])([O-])=S.[Na+].[Na+] [STS, sodium thiosulfate]
lowering of incidence of hearing loss ([5]; children with localized standard-risk hepatoblastoma, 6 hours after cisplatin chemotherapy): 48%
survival of treated patients with disseminated tumors [5]: lowered survival rate

O=C1Cc2c([nH]c3ccc(Br)cc23)-c2ccccc2N1 [kenpaullone]
IC50 [1]: 0.2 µM

O=c1c2ccccc2[se]n1-c1ccccc1 [ebselen]
IC50 [1]: 10.8 µM
